Experiments:
[1] = tested on: Trypanosoma brucei rhodesiense; assay: Antiparasitic activity against Trypanosoma brucei rhodesiense by Alamar blue assay; format: functional, organism-based
Trypanosoma cruzi = assay: Antiparasitic activity against Trypanosoma cruzi; format: functional, organism-based
Plasmodium falciparum = assay: Antiparasitic activity against Plasmodium falciparum; format: functional, organism-based
Leishmania donovani [2] = assay: Antileishmanial activity against Leishmania donovani axenic amastigotes; format: functional, organism-based
Leishmania donovani [3] = assay: Antileishmanial activity against Leishmania donovani in mouse macrophages; format: functional, organism-based
L6 = assay: Cytotoxicity against rat L6 cells by Alamar blue assay; format: cell-based
[4] = Selectivity index, ratio of IC50 for rat L6 cells to IC50 for Trypanosoma cruzi; format: functional
[5] = Selectivity index, ratio of IC50 for rat L6 cells to IC50 for Leishmania donovani in mouse macrophages; format: functional

`C=CC(C#CC#CC(O)CCCCCCCCC)OC(C)=O` (centres undefined) gave an IC50 [1] of 460 nM, an IC50 (Trypanosoma cruzi) of 650 nM and an IC50 (Plasmodium falciparum) of 1400 nM. It also gave an IC50 (Leishmania donovani [2]) of 130 nM, an IC50 (Leishmania donovani [3]) of 320 nM and an IC50 (L6) of 12 µM. The “Ratio IC50” value [4] was 18 and the “Ratio IC50” value [5] was 37.

With `C=CC(C#CC#CC(O)CCCCCCCCCCOC(C)=O)OC(C)=O` (centres undefined) the IC50 [1] was 1100 nM, the IC50 (Trypanosoma cruzi) was 400 nM and the IC50 (Plasmodium falciparum) was 2200 nM. For the same compound, the IC50 (Leishmania donovani [2]) was 140 nM, the IC50 (Leishmania donovani [3]) was 2300 nM and the IC50 (L6) was 58 µM. For the same compound, the “Ratio IC50” value [4] was 150 and the “Ratio IC50” value [5] was 26.

`CCCCCCCCCC(O)C#CC#CC(CC)OC(C)=O` (centres undefined) gave an IC50 [1] of 18000 nM, an IC50 (Trypanosoma cruzi) of 26000 nM and an IC50 (Plasmodium falciparum) of 19000 nM. For the same compound, the IC50 (Leishmania donovani [2]) was 7800 nM, the IC50 (Leishmania donovani [3]) was greater than 10000 nM and the IC50 (L6) was 54 µM. For the same compound, the “Ratio IC50” value [4] was 2.1 and the “Ratio IC50” value [5] was less than 5.5.

With `C[C@@H]1CC[C@H]2[C@@H](C)C(=O)O[C@@H]3O[C@@]4(C)CC[C@@H]1[C@]32OO4` [ARTEMISININ] the IC50 (Plasmodium falciparum) was 4.3 nM.

Work on `O=C(Cn1ccnc1[N+](=O)[O-])NCc1ccccc1` [BENZNIDAZOLE] yielded an IC50 (Trypanosoma cruzi) of 2400 nM.

In the case of `Nc1nc(N)nc(Nc2ccc([As]3SCC(CO)S3)cc2)n1` (centres undefined) [MELARSOPROL], the IC50 [1] is reported as 5.8 nM.

Compound `CCCCCCCCCCCCCCCCOP(=O)([O-])OCC[N+](C)(C)C` [MILTEFOSINE] has an IC50 (Leishmania donovani [3]) of 710 nM.

From ChEMBL document CHEMBL1141322, “Antiprotozoal polyacetylenes from the Tanzanian medicinal plant Cussonia zimmermannii” (J Nat Prod, 2007)
